Source: publication doi:10.1101/2024.02.16.580637v1 (biorxiv, 2024)

What was measured:
Assay in all cases: grating-coupled interferometry
Assay type in all cases: binding
Settings in all cases: 20 mM Tris/HCl pH 7.5, 150 mM NaCl; mass transport limitation model
BtuG2 = target: T1, BtuG2 (Bacteroides thetaiotaomicron, UniProt Q8A6D0)
T1 sequence (Q8A6D0 47-366): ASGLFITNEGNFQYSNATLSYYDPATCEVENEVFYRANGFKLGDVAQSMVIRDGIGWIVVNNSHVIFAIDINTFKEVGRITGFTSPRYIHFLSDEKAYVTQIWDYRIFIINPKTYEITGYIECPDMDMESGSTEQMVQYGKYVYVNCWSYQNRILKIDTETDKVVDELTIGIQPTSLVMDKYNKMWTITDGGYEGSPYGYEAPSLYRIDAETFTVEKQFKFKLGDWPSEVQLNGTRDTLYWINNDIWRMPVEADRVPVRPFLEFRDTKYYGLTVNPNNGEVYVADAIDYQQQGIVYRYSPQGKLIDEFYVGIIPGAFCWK

BtuG3 [1] = target: T2, BtuG3 (Bacteroides thetaiotaomicron, UniProt Q8A5Z1, A261W)
T2 sequence (Q8A5Z1 34-355 A261W): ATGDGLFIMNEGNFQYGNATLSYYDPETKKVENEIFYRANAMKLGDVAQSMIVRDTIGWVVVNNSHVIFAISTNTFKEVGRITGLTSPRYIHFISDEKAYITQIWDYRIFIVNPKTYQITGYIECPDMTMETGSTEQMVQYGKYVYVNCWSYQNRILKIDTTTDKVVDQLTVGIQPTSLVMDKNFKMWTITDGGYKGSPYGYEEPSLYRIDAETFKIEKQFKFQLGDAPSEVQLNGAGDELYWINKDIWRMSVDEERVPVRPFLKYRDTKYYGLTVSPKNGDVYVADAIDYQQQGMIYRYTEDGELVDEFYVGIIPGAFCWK

BtuG3 [2] = target: T3, BtuG3 (Bacteroides thetaiotaomicron, UniProt Q8A5Z1)
T3 sequence (Q8A5Z1 34-355): T2 sequence (Q8A5Z1 34-355 A261W)

BtuG1 = target: T4, BtuG1 (Bacteroides thetaiotaomicron, UniProt Q8A7N4)
T4 sequence (Q8A7N4 28-442): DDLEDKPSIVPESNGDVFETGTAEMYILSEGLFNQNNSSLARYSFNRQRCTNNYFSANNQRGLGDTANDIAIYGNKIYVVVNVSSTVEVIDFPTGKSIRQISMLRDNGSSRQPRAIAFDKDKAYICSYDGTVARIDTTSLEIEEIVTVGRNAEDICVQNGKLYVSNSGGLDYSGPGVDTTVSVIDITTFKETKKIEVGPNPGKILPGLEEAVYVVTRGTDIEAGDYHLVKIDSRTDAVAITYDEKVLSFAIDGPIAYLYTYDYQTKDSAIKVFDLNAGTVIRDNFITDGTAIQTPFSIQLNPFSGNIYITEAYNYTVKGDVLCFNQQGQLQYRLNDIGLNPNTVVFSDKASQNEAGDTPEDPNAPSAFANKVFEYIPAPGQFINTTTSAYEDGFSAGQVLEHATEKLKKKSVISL

Q: With C/C1=C2/[N-][C@H]([C@H](CC(N)=O)[C@@]2(C)CCC(=O)NC[C@@H](C)OP(=O)([O-])O[C@H]2[C@@H](O)[C@@H](n3cnc4cc(C)c(C)cc43)O[C@@H]2CO)[C@]2(C)N=C(/C(C)=C3N=C(/C=C4N=C1[C@@H](CCC(N)=O)C\4(C)C)[C@@H](CCC(N)=O)[C@]\3(C)CC(N)=O)[C@@H](CCC(N)=O)[C@]2(C)CC(N)=O.[Co+3].[OH-] [OHCbl, hydroxycobalamin] as the molecule, how does the Kd (BtuG2) read?
A: The Kd was 2.2 · 10^-12 M.

Q: What about the Kd (BtuG3 [1]) of the same molecule?
A: Its Kd is 1.4 · 10^-10 M.

Q: And the Kd (BtuG3 [2])?
A: Its Kd is 2.8 · 10^-11 ± 3.9 · 10^-11 M.

Q: And the Kd (BtuG1)?
A: The Kd was 3.0 · 10^-12 M.
